Assay results reported in PubChem BioAssay (NCI).
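Where inhibition never reached the appropriate level, the endpoint shown equals the highest concentration tested. Otherwise, values were interpolated linearly from a five-concentration, 48-hour dose response in 96-well plates. The concentration for full growth arrest is given as TGI.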

Assays:
Test in all cases: growth of human tumour cells (NCI), 48 h
786-0 renal = test system: 786-0 renal
A498 renal = test system: A498 renal
A549 NSCLC = test system: A549 NSCLC
ACHN renal = test system: ACHN renal
CAKI-1 renal = test system: CAKI-1 renal
CCRF-CEM leukemia = test system: CCRF-CEM leukemia
COLO 205 colon = test system: COLO 205 colon
DLD-1 colon = test system: DLD-1 colon
DMS 114 small cell lung = test system: DMS 114 small cell lung
DMS 273 small cell lung = test system: DMS 273 small cell lung
EKVX NSCLC = test system: EKVX NSCLC
HCC-2998 colon = test system: HCC-2998 colon
HCT-116 colon = test system: HCT-116 colon
HCT-15 colon = test system: HCT-15 colon
HL-60(TB) leukemia = test system: HL-60(TB) leukemia
HOP-18 NSCLC = test system: HOP-18 NSCLC
HOP-62 NSCLC = test system: HOP-62 NSCLC
HT29 colon = test system: HT29 colon
IGROV1 ovarian = test system: IGROV1 ovarian
K-562 leukemia = test system: K-562 leukemia
KM12 colon = test system: KM12 colon
KM20L2 colon = test system: KM20L2 colon
LOX IMVI melanoma = test system: LOX IMVI melanoma
LXFL 529 NSCLC = test system: LXFL 529 NSCLC
M14 melanoma = test system: M14 melanoma
M19-MEL melanoma = test system: M19-MEL melanoma
MALME-3M melanoma = test system: MALME-3M melanoma
MOLT-4 leukemia = test system: MOLT-4 leukemia
NCI-H226 lung = test system: NCI-H226 lung
NCI-H23 lung = test system: NCI-H23 lung
NCI-H460 lung = test system: NCI-H460 lung
NCI-H522 lung = test system: NCI-H522 lung
OVCAR-3 ovarian = test system: OVCAR-3 ovarian
OVCAR-4 ovarian = test system: OVCAR-4 ovarian
OVCAR-5 ovarian = test system: OVCAR-5 ovarian
OVCAR-8 ovarian = test system: OVCAR-8 ovarian
RPMI-8226 leukemia = test system: RPMI-8226 leukemia
RXF 393 renal = test system: RXF 393 renal
SF-268 CNS = test system: SF-268 CNS
SF-295 CNS = test system: SF-295 CNS
SF-539 CNS = test system: SF-539 CNS
SK-MEL-2 melanoma = test system: SK-MEL-2 melanoma
SK-MEL-28 melanoma = test system: SK-MEL-28 melanoma
SK-MEL-5 melanoma = test system: SK-MEL-5 melanoma
SK-OV-3 ovarian = test system: SK-OV-3 ovarian
SN12C renal = test system: SN12C renal
SNB-19 CNS = test system: SNB-19 CNS
SNB-78 CNS = test system: SNB-78 CNS
SW-620 colon = test system: SW-620 colon
TK-10 renal = test system: TK-10 renal
U251 CNS = test system: U251 CNS
UACC-257 melanoma = test system: UACC-257 melanoma
UACC-62 melanoma = test system: UACC-62 melanoma
UO-31 renal = test system: UO-31 renal
XF 498 CNS = test system: XF 498 CNS

Measured: TGI

S=c1nc(-c2ccnc(-c3nc(=S)[nH][nH]3)c2)[nH][nH]1
> 100 µM: all assays above
